Results published in patent US12157741B2, “Macrocyclic inhibitors of DYRK1A” (DANA-FARBER CANCER INSTITUTE, INC., priority 2018, dated 2024).
Where two headings read alike, the source gives them in different places.

What was measured:
Type in all cases: binding
various enzymes [1] = molecular target: various enzymes (Homo sapiens, UniProt O00141); details: compound 1 uM
Protocol: (§1) Ambit profiling was conducted in accordance with the manufacturer's instructions.

various enzymes [2] = molecular target: various enzymes (Homo sapiens, UniProt O14936); details: compound 1 uM
Protocol: as §1

various enzymes [3] = molecular target: various enzymes (Homo sapiens, UniProt O15197); details: compound 1 uM
Protocol: as §1

various enzymes [4] = molecular target: various enzymes (Homo sapiens, UniProt O15530); details: compound 1 uM
Protocol: as §1

various enzymes [5] = molecular target: various enzymes (Homo sapiens, UniProt O43318); details: compound 1 uM
Protocol: as §1

various enzymes [6] = molecular target: various enzymes (Homo sapiens, UniProt O95835); details: compound 1 uM
Protocol: as §1

various enzymes [7] = molecular target: various enzymes (Homo sapiens, UniProt O96017); details: compound 1 uM
Protocol: as §1

various enzymes [8] = molecular target: various enzymes (Homo sapiens, UniProt P10721, D816V)
Protocol: as §1

various enzymes [9] = molecular target: various enzymes (Homo sapiens, UniProt P36896); details: compound 1 uM
Protocol: as §1

various enzymes [10] = molecular target: various enzymes (Homo sapiens, UniProt P36897); details: compound 1 uM
Protocol: as §1

various enzymes [11] = molecular target: various enzymes (Homo sapiens, UniProt P42336, C420R)
Protocol: as §1

various enzymes [12] = molecular target: various enzymes (Homo sapiens, UniProt P42336, E545A)
Protocol: as §1

various enzymes [13] = molecular target: various enzymes (Homo sapiens, UniProt P42336, Q546K)
Protocol: as §1

various enzymes [14] = molecular target: various enzymes (Homo sapiens, UniProt P50613); details: compound 1 uM
Protocol: as §1

various enzymes [15] = molecular target: various enzymes (Homo sapiens, UniProt P51817); details: compound 1 uM
Protocol: as §1

various enzymes [16] = molecular target: various enzymes (Homo sapiens, UniProt P53671); details: compound 1 uM
Protocol: as §1

various enzymes [17] = molecular target: various enzymes (Homo sapiens, UniProt P54646); details: compound 1 uM
Protocol: as §1

various enzymes [18] = molecular target: various enzymes (Homo sapiens, UniProt P68400); details: compound 1 uM
Protocol: as §1

various enzymes [19] = molecular target: T1, various enzymes (Homo sapiens, UniProt Q12852); details: compound 1 uM
T1 sequence (Q12852 1-859): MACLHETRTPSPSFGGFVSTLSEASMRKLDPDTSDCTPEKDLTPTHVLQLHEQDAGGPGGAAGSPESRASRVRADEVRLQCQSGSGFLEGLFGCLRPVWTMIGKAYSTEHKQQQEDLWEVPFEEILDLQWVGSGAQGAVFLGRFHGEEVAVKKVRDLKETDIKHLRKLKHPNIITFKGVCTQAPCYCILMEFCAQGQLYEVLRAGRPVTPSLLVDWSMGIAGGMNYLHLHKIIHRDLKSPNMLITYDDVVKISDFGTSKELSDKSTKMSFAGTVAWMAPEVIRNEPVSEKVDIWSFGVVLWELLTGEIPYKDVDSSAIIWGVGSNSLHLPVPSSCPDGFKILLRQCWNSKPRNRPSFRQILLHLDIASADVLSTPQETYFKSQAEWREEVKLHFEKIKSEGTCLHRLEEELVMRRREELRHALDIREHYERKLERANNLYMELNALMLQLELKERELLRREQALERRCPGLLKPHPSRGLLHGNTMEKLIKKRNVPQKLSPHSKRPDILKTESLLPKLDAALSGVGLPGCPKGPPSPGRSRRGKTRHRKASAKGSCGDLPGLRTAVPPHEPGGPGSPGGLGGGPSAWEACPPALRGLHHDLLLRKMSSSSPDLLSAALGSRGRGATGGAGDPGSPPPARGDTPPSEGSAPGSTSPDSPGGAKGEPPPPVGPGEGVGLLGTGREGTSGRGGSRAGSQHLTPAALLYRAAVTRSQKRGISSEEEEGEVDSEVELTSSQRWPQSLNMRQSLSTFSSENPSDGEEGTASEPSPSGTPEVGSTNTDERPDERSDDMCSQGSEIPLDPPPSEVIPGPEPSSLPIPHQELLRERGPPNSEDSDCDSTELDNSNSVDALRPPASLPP
Protocol: as §1

various enzymes [20] = molecular target: various enzymes (Homo sapiens, UniProt Q15303); details: compound 1 uM
Protocol: as §1

various enzymes [21] = molecular target: various enzymes (Homo sapiens, UniProt Q16539); details: compound 1 uM
Protocol: as §1

various enzymes [22] = molecular target: various enzymes (Homo sapiens, UniProt Q16566); details: compound 1 uM
Protocol: as §1

various enzymes [23] = molecular target: various enzymes (Homo sapiens, UniProt Q5S007, G2019S)
Protocol: as §1

various enzymes [24] = molecular target: various enzymes (Homo sapiens, UniProt Q7L7X3); details: compound 1 uM
Protocol: as §1

various enzymes [25] = molecular target: various enzymes (Homo sapiens, UniProt Q8NFD2); details: compound 1 uM
Protocol: as §1

various enzymes [26] = molecular target: various enzymes (Homo sapiens, UniProt Q8TBX8); details: compound 1 uM
Protocol: as §1

various enzymes [27] = molecular target: various enzymes (Homo sapiens, UniProt Q8TD08); details: compound 1 uM
Protocol: as §1

various enzymes [28] = molecular target: various enzymes (Homo sapiens, UniProt Q9BXA7); details: compound 1 uM
Protocol: as §1

various enzymes [29] = molecular target: various enzymes (Homo sapiens, UniProt Q9HC98); details: compound 1 uM
Protocol: as §1

various enzymes [30] = molecular target: various enzymes (Homo sapiens, UniProt Q9UL54); details: compound 1 uM
Protocol: as §1

various enzymes [31] = molecular target: various enzymes (Homo sapiens, UniProt Q9UQM7); details: compound 1 uM
Protocol: as §1

various enzymes [32] = molecular target: various enzymes (Homo sapiens, UniProt Q9Y2I7); details: compound 1 uM
Protocol: as §1

various enzymes [33] = molecular target: various enzymes (Homo sapiens, UniProt Q9Y6M4); details: compound 1 uM
Protocol: as §1

Sequence of various enzymes (Homo sapiens, UniProt P42336, Q546K) (P42336 whole entry Q546K): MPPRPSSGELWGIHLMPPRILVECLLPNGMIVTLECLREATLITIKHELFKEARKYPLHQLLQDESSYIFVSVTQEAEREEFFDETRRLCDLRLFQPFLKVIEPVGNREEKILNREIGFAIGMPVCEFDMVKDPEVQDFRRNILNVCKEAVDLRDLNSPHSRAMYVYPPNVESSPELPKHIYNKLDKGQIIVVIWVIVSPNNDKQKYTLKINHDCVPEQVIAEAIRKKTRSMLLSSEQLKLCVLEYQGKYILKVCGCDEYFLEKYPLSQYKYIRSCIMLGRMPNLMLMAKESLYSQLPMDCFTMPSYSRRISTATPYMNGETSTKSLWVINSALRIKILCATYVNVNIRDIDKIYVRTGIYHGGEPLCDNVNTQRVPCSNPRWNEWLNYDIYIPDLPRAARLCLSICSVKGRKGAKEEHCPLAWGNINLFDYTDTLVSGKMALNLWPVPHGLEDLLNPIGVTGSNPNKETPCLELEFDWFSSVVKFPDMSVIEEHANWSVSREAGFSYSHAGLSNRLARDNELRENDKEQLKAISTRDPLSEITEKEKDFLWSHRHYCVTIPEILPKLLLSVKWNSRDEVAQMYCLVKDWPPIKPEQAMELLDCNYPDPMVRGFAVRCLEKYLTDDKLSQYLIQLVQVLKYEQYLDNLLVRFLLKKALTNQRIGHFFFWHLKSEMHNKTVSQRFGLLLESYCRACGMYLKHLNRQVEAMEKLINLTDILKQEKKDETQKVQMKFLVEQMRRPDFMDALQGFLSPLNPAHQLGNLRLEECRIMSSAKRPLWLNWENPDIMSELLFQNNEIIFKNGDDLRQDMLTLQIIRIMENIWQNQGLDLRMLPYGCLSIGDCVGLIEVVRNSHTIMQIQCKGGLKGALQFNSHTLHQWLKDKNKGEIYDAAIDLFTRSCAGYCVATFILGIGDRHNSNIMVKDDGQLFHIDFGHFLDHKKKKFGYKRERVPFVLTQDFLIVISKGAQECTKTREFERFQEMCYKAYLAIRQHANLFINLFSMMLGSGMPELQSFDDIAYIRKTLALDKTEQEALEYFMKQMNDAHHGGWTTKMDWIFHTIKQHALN
Sequence of various enzymes (Homo sapiens, UniProt O96017) (O96017 whole entry): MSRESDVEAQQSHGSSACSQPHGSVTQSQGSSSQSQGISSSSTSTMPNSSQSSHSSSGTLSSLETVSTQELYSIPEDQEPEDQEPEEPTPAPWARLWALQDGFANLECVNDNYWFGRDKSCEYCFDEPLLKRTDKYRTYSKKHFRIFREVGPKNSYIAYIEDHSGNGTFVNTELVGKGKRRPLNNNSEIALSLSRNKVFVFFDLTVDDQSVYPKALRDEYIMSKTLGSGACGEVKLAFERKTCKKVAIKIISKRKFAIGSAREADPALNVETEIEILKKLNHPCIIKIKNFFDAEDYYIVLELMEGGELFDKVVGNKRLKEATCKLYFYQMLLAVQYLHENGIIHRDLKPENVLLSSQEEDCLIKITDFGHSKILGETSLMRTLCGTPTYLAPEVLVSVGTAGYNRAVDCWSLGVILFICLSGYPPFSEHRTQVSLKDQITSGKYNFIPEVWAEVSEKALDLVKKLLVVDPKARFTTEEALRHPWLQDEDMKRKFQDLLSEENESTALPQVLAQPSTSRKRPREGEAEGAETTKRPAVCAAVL
Sequence of various enzymes (Homo sapiens, UniProt O15530) (O15530 whole entry): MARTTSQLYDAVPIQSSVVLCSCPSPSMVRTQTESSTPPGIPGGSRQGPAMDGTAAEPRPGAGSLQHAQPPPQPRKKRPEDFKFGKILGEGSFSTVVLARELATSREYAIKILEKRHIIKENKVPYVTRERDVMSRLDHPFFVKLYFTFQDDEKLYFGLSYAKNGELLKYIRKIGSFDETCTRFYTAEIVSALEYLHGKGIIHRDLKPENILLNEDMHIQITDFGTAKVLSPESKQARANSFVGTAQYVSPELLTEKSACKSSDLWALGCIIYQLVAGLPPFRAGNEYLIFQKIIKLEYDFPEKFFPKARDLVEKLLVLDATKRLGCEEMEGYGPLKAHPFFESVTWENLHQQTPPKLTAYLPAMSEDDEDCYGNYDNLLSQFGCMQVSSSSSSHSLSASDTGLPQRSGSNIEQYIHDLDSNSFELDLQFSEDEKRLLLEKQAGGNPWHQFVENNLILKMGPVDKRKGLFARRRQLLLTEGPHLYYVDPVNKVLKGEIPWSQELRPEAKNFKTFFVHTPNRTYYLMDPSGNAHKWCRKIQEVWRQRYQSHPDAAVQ
Sequence of various enzymes (Homo sapiens, UniProt Q9HC98) (Q9HC98 whole entry): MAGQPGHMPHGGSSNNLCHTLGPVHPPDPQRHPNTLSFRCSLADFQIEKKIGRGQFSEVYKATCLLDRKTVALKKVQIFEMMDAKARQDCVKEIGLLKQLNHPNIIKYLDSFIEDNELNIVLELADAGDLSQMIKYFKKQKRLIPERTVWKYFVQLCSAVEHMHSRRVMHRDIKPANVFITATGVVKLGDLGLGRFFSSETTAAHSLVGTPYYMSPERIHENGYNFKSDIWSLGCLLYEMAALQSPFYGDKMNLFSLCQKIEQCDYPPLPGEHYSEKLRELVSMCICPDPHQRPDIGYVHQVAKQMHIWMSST
Sequence of various enzymes (Homo sapiens, UniProt P68400) (P68400 whole entry): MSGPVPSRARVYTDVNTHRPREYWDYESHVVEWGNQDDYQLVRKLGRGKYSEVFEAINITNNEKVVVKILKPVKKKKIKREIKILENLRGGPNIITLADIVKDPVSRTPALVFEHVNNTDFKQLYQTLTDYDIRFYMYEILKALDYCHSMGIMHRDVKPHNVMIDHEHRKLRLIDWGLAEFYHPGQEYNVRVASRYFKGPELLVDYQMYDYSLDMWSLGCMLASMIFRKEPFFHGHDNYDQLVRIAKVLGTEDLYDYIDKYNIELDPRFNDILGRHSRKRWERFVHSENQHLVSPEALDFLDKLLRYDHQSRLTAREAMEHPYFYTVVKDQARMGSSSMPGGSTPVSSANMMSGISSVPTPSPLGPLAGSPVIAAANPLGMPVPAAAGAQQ
Sequence of various enzymes (Homo sapiens, UniProt P42336, E545A) (P42336 whole entry E545A): as the sequence (P42336 whole entry Q546K) above, with E545A, K546Q counted along it
Sequence of various enzymes (Homo sapiens, UniProt Q9Y6M4) (Q9Y6M4 whole entry): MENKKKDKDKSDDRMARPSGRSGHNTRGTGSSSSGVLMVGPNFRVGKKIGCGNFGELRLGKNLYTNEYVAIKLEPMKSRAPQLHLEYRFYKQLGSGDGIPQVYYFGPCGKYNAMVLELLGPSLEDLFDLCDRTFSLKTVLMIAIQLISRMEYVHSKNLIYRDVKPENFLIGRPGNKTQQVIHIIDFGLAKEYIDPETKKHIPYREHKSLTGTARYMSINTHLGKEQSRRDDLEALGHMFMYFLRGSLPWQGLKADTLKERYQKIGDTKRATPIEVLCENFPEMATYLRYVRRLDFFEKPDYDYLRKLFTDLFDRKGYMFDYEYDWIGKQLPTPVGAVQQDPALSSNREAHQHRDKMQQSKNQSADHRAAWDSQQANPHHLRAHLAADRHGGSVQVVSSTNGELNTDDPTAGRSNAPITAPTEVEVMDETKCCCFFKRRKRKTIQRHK
Sequence of various enzymes (Homo sapiens, UniProt P50613) (P50613 whole entry): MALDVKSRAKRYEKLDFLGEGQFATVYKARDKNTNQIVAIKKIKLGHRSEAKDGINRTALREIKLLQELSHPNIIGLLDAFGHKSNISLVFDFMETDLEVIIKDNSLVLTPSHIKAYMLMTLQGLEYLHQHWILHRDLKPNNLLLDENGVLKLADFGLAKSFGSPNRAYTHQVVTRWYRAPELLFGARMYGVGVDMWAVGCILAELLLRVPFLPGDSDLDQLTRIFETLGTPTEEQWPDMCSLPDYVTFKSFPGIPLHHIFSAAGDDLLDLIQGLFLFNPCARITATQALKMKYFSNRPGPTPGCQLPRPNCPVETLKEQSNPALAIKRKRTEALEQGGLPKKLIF
Sequence of various enzymes (Homo sapiens, UniProt Q16539) (Q16539 whole entry): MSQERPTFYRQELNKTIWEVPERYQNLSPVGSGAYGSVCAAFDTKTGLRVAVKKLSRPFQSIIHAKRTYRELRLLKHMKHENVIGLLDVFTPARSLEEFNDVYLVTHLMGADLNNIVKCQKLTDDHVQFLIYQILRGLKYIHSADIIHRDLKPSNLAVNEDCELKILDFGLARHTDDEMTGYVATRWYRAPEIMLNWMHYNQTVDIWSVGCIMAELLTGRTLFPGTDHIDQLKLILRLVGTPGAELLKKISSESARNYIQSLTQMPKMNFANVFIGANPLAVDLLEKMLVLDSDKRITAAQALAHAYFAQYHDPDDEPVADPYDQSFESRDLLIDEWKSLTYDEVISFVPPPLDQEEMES
Sequence of various enzymes (Homo sapiens, UniProt O43318) (O43318 whole entry): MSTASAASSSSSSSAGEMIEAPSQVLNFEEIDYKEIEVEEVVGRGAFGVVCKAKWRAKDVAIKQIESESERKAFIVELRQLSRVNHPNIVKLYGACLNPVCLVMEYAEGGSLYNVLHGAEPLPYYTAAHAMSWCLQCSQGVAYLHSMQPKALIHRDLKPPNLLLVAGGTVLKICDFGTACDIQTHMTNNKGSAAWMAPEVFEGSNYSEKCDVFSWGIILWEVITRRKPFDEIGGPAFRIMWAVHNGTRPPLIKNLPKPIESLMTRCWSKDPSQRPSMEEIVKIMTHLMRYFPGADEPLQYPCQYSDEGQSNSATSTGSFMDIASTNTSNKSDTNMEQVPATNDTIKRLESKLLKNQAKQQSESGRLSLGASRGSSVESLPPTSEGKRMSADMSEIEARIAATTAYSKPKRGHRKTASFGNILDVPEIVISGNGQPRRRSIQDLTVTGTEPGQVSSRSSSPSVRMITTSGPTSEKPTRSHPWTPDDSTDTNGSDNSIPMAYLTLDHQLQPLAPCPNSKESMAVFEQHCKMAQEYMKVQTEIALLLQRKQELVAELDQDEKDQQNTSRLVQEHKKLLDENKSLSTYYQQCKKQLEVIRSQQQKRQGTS
Sequence of various enzymes (Homo sapiens, UniProt P42336, C420R) (P42336 whole entry C420R): as the sequence (P42336 whole entry Q546K) above, with C420R, K546Q counted along it

Structure (SMILES)	Ambit profiling: SGK (various enzymes [1])	Ambit profiling: CASK (various enzymes [2])	Ambit profiling: PDPK1 (various enzymes [4])	Ambit profiling: TAK1 (various enzymes [5])	Ambit profiling: LATS1 (various enzymes [6])	Ambit profiling: CHEK2 (various enzymes [7])	Ambit profiling: ACVR1B (various enzymes [9])	Ambit profiling: TGFBR1 (various enzymes [10])	Ambit profiling: CDK7 (various enzymes [14])	Ambit profiling: PRKX (various enzymes [15])	Ambit profiling: LIMK2 (various enzymes [16])	Ambit profiling: AMPK-alpha2 (various enzymes [17])	Ambit profiling: CSNK2A1 (various enzymes [18])	Ambit profiling: DLK (various enzymes [19])	Ambit profiling: ERBB4 (various enzymes [20])	Ambit profiling: p38-alpha (various enzymes [21])	Ambit profiling: CAMK4 (various enzymes [22])	Ambit profiling: TAOK1 (various enzymes [24])	Ambit profiling: ANKK1 (various enzymes [25])	Ambit profiling: PIP5K2C (various enzymes [26])	further results
CC(C)N1Cc2nn(C)cc2-c2cnc3[nH]cc(c3c2)-c2cn(nc2C(F)(F)F)CCCC1=O [Compound 45, (Z)-5-isopropyl-31-methyl-13-(trifluoromethyl)-11H,21H,31H-5-aza-2(3,5)-pyrrolo[2,3-b]pyridina-1(4,1),3(4,3)-dipyrazolacyclononaphan-6-one]	1.3	7.4	98	4.1	100	82	89	87	13	100	100	87	19	32	55	86	100	8.8	100	100	Ambit profiling: EPHB6 (various enzymes [3]): 4.8; Ambit profiling: KIT(D816V) (various enzymes [8]; compound 1 uM): 4.2; Ambit profiling: PIK3CA(C420R) (various enzymes [11]; compound 1 uM): 100; Ambit profiling: PIK3CA(E545A) (various enzymes [12]; compound 1 uM): 56; Ambit profiling: PIK3CA(Q546K) (various enzymes [13]; compound 1 uM): 100; Ambit profiling: LRRK2(G2019S) (various enzymes [23]; compound 1 uM): 53; Ambit profiling: ERK8 (various enzymes [27]): 6.1; Ambit profiling: TSSK1B (various enzymes [28]): 83; Ambit profiling: NEK6 (various enzymes [29]): 98; Ambit profiling: TAOK2 (various enzymes [30]): 28; Ambit profiling: CAMK2A (various enzymes [31]): 7.7; Ambit profiling: PIKFYVE (various enzymes [32]): 13; Ambit profiling: CSNK1G3 (various enzymes [33]): 100
COc1c2c(nn1C)CN(C(C)C)C(=O)CCCn1cc(c(C(F)(F)F)n1)-c1c[nH]c3ncc-2cc13 [Compound 50, (Z)-5-isopropyl-35-methoxy-31-methyl-13-(trifluoromethyl)-11H,21H,31H-5-aza-2(3,5)-pyrrolo[2,3-b]pyridina-1(4,1),3(4,3)-dipyrazolacyclononaphan-6-one]	6	36	100	9.1	72	80	57	36	6	100	64	57	59	25	32	81	100	82	94	20	Ambit profiling: EPH86 (various enzymes [3]): 0.7; Ambit profiling: KIT(D816V) (various enzymes [8]): 0.35; Ambit profiling: PIK3CA(C420R) (various enzymes [11]): 91; Ambit profiling: PIK3CA(E545A) (various enzymes [12]): 82; Ambit profiling: PIK3CA(Q546K) (various enzymes [13]): 86; Ambit profiling: LRRK2(G2019S) (various enzymes [23]): 27; Ambit profiling: ERK8 (various enzymes [27]): 18; Ambit profiling: TSSK1B (various enzymes [28]): 43; Ambit profiling: NEK6 (various enzymes [29]): 100; Ambit profiling: TAOK2 (various enzymes [30]): 69; Ambit profiling: CAMK2A (various enzymes [31]): 12; Ambit profiling: PIKFYVE (various enzymes [32]): 11; Ambit profiling: CSNK1G3 (various enzymes [33]): 79
